Measurements from patent US6503919B1, “Compounds of 7-oxo-2,3,7,14-tetrahydro-1H-benzo[b]pyrano[3,2-h]acridin carboxylate” (Les Laboratoires Server, priority 1999, dated 2003).

Tests used:
[1] = tested on: murine leukaemia L1210 and human colon carcinoma HT-29; experiment: In vitro cytotoxicity, Microculture Tetrazolium Assay; assay type: cell-based; settings: 4 doubling periods: 48 hours (L1210) or 96 hours (HT-29); cell line not stated; read-out: IC50 (cytotoxic concentration that inhibits the proliferation of the treated cells by 50%)
Description: The murine leukaemia L1210 and the human colon carcinoma HT-29 were used in vitro. The cells are cultured in complete RPMI 1640 culture medium containing 10% foetal calf serum, 2 mM glutamine, 50 U/ml of penicillin, 50 μg/ml of streptomycin and 10 mM Hepes, pH: 7.4. The cells are distributed in microplates and exposed to the cytotoxic compounds for 4 doubling periods, that is to say 48 hours (L1210) or 96 hours (HT-29). The number of viable cells is then quantified by a colorimetric assay, the Microculture Tetrazolium Assay (J. Carmichael et al., Cancer Res., 47, 936-942, (1987)). The results are expressed as IC50 values, which is the cytotoxic concentration that inhibits the proliferation of the treated cells by 50%.

P 388 (murine leukaemia) = experiment: Anti-tumour activity on the leukaemia P 388; assay type: in vivo; settings: B6D2F1 mice, intraperitoneal route on day 1
Description: The line P 388 (murine leukaemia) was supplied by the National Cancer Institute (Frederick, USA). The tumour cells (10^6 cells) were inoculated on day 0 into the peritoneal cavity of female B6D2F1 mice (Iffa Credo, France). Six mice weighing from 18 to 20 g were used per experimental group. The compounds were administered by the intraperitoneal route on day 1.
The anti-tumour activity is expressed as % of T/C: [formula]

| melting point | Structure (SMILES) | IC50 [1] | anti-tumour activity in the P 388 model (in words) (P 388 (murine leukaemia)) |
| --- | --- | --- | --- |
| 154 °C | COc1cc2c(c3c1c(=O)c1cc4ccccc4cc1n3C)[C@@H](OC(C)=O)[C@@H](OC(=O)CCC(=O)O)C(C)(C)O2 (racemic) [Example 1, (±)-cis-4-{[1-(Acetyloxy)-6-methoxy-3,3,14-trimethyl-7-oxo-2,3,7,14-tetrahydro-1H-benzo[b]pyrano[3,2-h]acridin-2-yl]oxy}-4-oxobutanoic acid] | 2 µM |  |
| 155 °C | COc1cc2c(c3c1c(=O)c1cc4ccccc4cc1n3C)[C@@H](OC(C)=O)[C@@H](OC(=O)CCCC(=O)O)C(C)(C)O2 (racemic) [Example 3, (±)-cis-5-{[1-(Acetyloxy)-6-methoxy-3,3,14-trimethyl-7-oxo-2,3,7,14-tetrahydro-1H-benzo[b]pyrano[3,2-h]acridin-2-yl]oxy}-5-oxopentanoic acid] |  |  |
| 128 °C | COc1cc2c(c3c1c(=O)c1cc4ccccc4cc1n3C)[C@@H](OC(=O)CCC(=O)O)[C@@H](OC(=O)CCC(=O)O)C(C)(C)O2 (racemic) [Example 7, (±)-cis-4-({1-[(3-Carboxypropanoyl)oxy]-6-methoxy-3,3,14-trimethyl-7-oxo-2,3,7,14-tetrahydro-1H-benzo[b]pyrano[3,2-h]acridin-2-yl}oxy)-4-oxobutanoic acid] | 2.3 µM |  |
| 118 °C | COc1cc2c(c3c1c(=O)c1cc4ccccc4cc1n3C)[C@@H](OC(=O)CCCC(=O)O)[C@@H](OC(=O)CCCC(=O)O)C(C)(C)O2 (relative stereo) [Example 22, cis-5-({1-[(4-Carboxybutanoyl)oxy]6-methoxy-3,3,14-trimethyl-7-oxo-2,3,7,14-tetrahydro-1H-benzo[b]pyrano[3,2-h]acridin-2-yl}oxy)-5-oxopentanoic acid] |  |  |
|  | COc1cc2c(c3c1c(=O)c1ccccc1n3C)C=CC(C)(C)O2 [acronycine] |  | only marginally active |
